Series [1] has as its target T1, full-length beta-Catenin (Uniprot ID P35222) (Homo sapiens, UniProt P35222).
T1 construct: 10 nM full-length beta-Catenin (Uniprot ID P35222)
T1 sequence (P35222 1-781): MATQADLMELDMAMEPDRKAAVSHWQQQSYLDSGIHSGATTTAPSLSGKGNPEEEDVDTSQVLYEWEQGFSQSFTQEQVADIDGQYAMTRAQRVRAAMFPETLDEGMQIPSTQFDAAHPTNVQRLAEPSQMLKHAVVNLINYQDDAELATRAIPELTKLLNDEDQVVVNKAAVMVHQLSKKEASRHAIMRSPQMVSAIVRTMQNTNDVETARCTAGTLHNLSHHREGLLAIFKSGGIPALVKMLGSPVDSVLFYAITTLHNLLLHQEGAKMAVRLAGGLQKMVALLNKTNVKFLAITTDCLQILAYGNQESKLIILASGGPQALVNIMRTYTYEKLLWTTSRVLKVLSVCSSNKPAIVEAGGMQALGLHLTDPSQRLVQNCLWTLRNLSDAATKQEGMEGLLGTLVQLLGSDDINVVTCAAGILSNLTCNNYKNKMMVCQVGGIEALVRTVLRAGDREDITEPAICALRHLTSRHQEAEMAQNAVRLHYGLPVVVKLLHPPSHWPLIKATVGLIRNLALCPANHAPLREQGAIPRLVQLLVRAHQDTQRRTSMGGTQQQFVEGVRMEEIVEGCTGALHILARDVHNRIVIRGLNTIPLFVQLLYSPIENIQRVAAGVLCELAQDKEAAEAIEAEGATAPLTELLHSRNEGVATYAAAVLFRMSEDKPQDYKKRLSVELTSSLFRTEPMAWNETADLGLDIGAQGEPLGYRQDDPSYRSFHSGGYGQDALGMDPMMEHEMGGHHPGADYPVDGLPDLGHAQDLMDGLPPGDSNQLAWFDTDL
In words: Fluorescence polarization IC50 (beta-catenin / 5FAM-TCF4 10-53 competition). Format: binding.

The nature of another series: CHI Log D procedure. Format: physicochemical. Conditions: for chromatographic logD: pH 7.4, CHI Log D; for CHI Log D: pH 7.4.
The mark [2] stands for this setting: fluorescence polarization, read-out: beta-Catenin FP IC50.

Experimental findings from patent US20240116985A1, “STAPLED PEPTIDES AND METHODS THEREOF” (priority 2020, published 2024) are described below.

Broadly, the chromatographic logD is a lipophilicity value derived from retention on a column. Read a high chromatographic logD as a more lipophilic compound.

Where two headings read alike, the source gives them in different places.

As to `CC[C@H](C)[C@@H]1NC(=O)[C@H](CNS(=O)(=O)C(F)(F)F)NC(=O)[C@]2(CC=CCCCC3(CCCC=CCCCCCC[C@@](C)(C(=O)N[C@@H](Cc4ccccc4)C(=O)N[C@@H](Cc4csc5ccccc45)C(=O)N[C@@H](CCC(N)=O)C(N)=O)NC(=O)[C@H](CCC(N)=O)NC(=O)[C@H](Cc4ccccc4)NC(=O)[C@H](C)NC(=O)[C@H](C)NC(=O)[C@H](CCC(=O)O)NC(=O)[C@H](CC(=O)O)NC3=O)NC1=O)CCCN2C(C)=O` (stereo partly drawn) [I-632, Ac-PL3-[Tf]Dap-Ile-B5-Asp-Glu-Ala-Ala-Phe-Gln-S8-Phe-BztA-Gln-NH2], the IC50 in series [1] (setting [2]) was determined as 5000 nM. Besides, the chromatographic logD in the series “CHI Log D procedure” was determined as 3.15.

As for `CCCC[C@@H]1NC(=O)[C@H](C)NC(=O)[C@H](CCC(=O)O)NC(=O)[C@H](CC(=O)O)NC(=O)C2(CCCC=CCCCCCC[C@@](C)(C(=O)N[C@@H](Cc3ccccc3)C(=O)N[C@@H](Cc3csc4ccccc34)C(=O)N[C@@H](CCC(N)=O)C(N)=O)NC(=O)[C@H](CCC(N)=O)NC(=O)[C@H](Cc3ccccc3)NC1=O)CCCC=CC[C@]1(CCCN1C(C)=O)C(=O)N[C@@H](CC(=O)O)C(=O)N[C@@H]([C@@H](C)CC)C(=O)N2` (stereo partly drawn) [I-666, Ac-PL3-Asp-Ile-B5-Asp-Glu-Ala-nLeu-Phe-Gln-S8-Phe-BztA-Gln-NH2], the IC50 in series [1] (setting [2]) and in series [1] (read-out: FP EC50) was 626 nM each time. Moreover, the “CHI Log D” value in “CHI Log D procedure” is on record as 2.862.

For the compound `CCCC[C@@H]1NC(=O)[C@H](C)NC(=O)[C@H](CCC(=O)O)NC(=O)[C@H](CC(=O)O)NC(=O)C2(CCCC=CCCCCCC[C@@](C)(C(=O)N[C@@H](Cc3ccccc3)C(=O)N[C@@H](Cc3csc4ccccc34)C(=O)N[C@@H](CCC(N)=O)C(N)=O)NC(=O)[C@H](CCC(N)=O)NC(=O)[C@H](Cc3ccccc3)NC1=O)CCCC=CC[C@]1(CCCN1C(C)=O)C(=O)N[C@@H](CC(=O)O)C(=O)N[C@@H]([C@@H](C)CC)C(=O)N2` (stereo partly drawn) [I-667, Ac-PL3-Asp-Ile-B5-Asp-Glu-Ala-nLeu-Phe-Gln-S8-Phe-BztA-Gln-NH2], the IC50 in series [1] (setting [2]) and in series [1] (read-out: FP EC50) was 585 nM each time. Also, the “CHI Log D” value in “CHI Log D procedure” is recorded as 2.88.

In the case of `CC[C@H](C)[C@@H]1NC(=O)C[C@H](C(=O)O)NC(=O)[C@]2(CC=CCCCC3(CCCC=CCCCCCC[C@@](C)(C(=O)N[C@@H](Cc4ccccc4)C(=O)N[C@@H](Cc4csc5ccccc45)C(=O)N[C@@H](CCC(N)=O)C(N)=O)NC(=O)[C@H](CCC(N)=O)NC(=O)[C@H](Cc4ccccc4)NC(=O)[C@H](C)NC(=O)[C@H](C)NC(=O)[C@H](CCC(=O)O)NC(=O)[C@H](CC(=O)O)NC3=O)NC1=O)CCCN2C(C)=O` (stereo partly drawn) [I-668, Ac-PL3-isoDAsp-Ile-B5-Asp-Glu-Ala-Ala-Phe-Gln-S8-Phe-BztA-Gln-NH2], the IC50 in series [1] (setting [2]) and in series [1] (read-out: FP EC50) was 675 nM throughout. For the same compound, the “CHI Log D” value in “CHI Log D procedure” is 2.199.

In the case of `CC[C@H](C)[C@@H]1NC(=O)C[C@H](C(=O)O)NC(=O)[C@]2(CC=CCCCC3(CCCC=CCCCCCC[C@@](C)(C(=O)N[C@@H](Cc4ccccc4)C(=O)N[C@@H](Cc4csc5ccccc45)C(=O)N[C@@H](CCC(N)=O)C(N)=O)NC(=O)[C@H](CCC(N)=O)NC(=O)[C@H](Cc4ccccc4)NC(=O)[C@H](C)NC(=O)[C@H](C)NC(=O)[C@H](CCC(=O)O)NC(=O)[C@H](CC(=O)O)NC3=O)NC1=O)CCCN2C(C)=O` (stereo partly drawn) [I-669, Ac-PL3-isoDAsp-Ile-B5-Asp-Glu-Ala-Ala-Phe-Gln-S8-Phe-BztA-Gln-NH2], the IC50 in series [1] (setting [2]) and in series [1] (read-out: FP EC50) was 451 nM throughout. Besides, the “CHI Log D” value in “CHI Log D procedure” turned out to be 2.25.

As to `CC[C@H](C)[C@@H]1NC(=O)C[C@H](CC(=O)O)NC(=O)[C@]2(CC=CCCCC3(CCCC=CCCCCCC[C@@](C)(C(=O)N[C@@H](Cc4ccccc4)C(=O)N[C@@H](Cc4csc5ccccc45)C(=O)N[C@@H](CCC(N)=O)C(N)=O)NC(=O)[C@H](CCC(N)=O)NC(=O)[C@H](Cc4ccccc4)NC(=O)[C@H](C)NC(=O)[C@H](C)NC(=O)[C@H](CCC(=O)O)NC(=O)[C@H](CC(=O)O)NC3=O)NC1=O)CCCN2C(C)=O` (stereo partly drawn) [I-671, Ac-PL3-RbGlu-Ile-B5-Asp-Glu-Ala-Ala-Phe-Gln-S8-Phe-BztA-Gln-NH2], the IC50 in series [1] (setting [2]) and in series [1] (read-out: FP EC50) was 3140 nM throughout. The “CHI Log D” value in “CHI Log D procedure” came to 2.25.

Take `CC[C@H](C)[C@@H]1NC(=O)C[C@@H](CC(=O)O)NC(=O)[C@]2(CC=CCCCC3(CCCC=CCCCCCC[C@@](C)(C(=O)N[C@@H](Cc4ccccc4)C(=O)N[C@@H](Cc4csc5ccccc45)C(=O)N[C@@H](CCC(N)=O)C(N)=O)NC(=O)[C@H](CCC(N)=O)NC(=O)[C@H](Cc4ccccc4)NC(=O)[C@H](C)NC(=O)[C@H](C)NC(=O)[C@H](CCC(=O)O)NC(=O)[C@H](CC(=O)O)NC3=O)NC1=O)CCCN2C(C)=O` (stereo partly drawn) [I-672, Ac-PL3-SbGlu-Ile-B5-Asp-Glu-Ala-Ala-Phe-Gln-S8-Phe-BztA-Gln-NH2]: the IC50 in series [1] (setting [2]) stood at 5000 nM. The compound further had a chromatographic logD in the series “CHI Log D procedure” of 1.9.

For `CC[C@H](C)[C@@H]1NC(=O)[C@H](CC(=O)O)NC(=O)[C@]2(CC=CCCCC3(CCCC=CCCCCCC[C@@](C)(C(=O)N[C@@H](Cc4ccccc4)C(=O)N[C@@H](Cc4csc5ccccc45)C(=O)N[C@@H](CCC(N)=O)C(N)=O)NC(=O)[C@H](CCC(N)=O)NC(=O)[C@H](Cc4ccccc4)NC(=O)[C@H](C)NC(=O)[C@H](C)NC(=O)[C@H](CCC(=O)O)NC(=O)C[C@@H](C(=O)O)NC3=O)NC1=O)CCCN2C(C)=O` (stereo partly drawn) [I-673, Ac-PL3-Asp-Ile-B5-isoAsp-Glu-Ala-Ala-Phe-Gln-S8-Phe-BztA-Gln-NH2], the IC50 in series [1] (setting [2]) stood at 5000 nM. The compound further yielded a chromatographic logD in the series “CHI Log D procedure” of 1.87.

On to `CC[C@H](C)[C@@H]1NC(=O)[C@H](CC(=O)O)NC(=O)[C@]2(CC=CCCCC3(CCCC=CCCCCCC[C@@](C)(C(=O)N[C@@H](Cc4ccccc4)C(=O)N[C@@H](Cc4csc5ccccc45)C(=O)N[C@@H](CCC(N)=O)C(N)=O)NC(=O)[C@H](CCC(N)=O)NC(=O)[C@H](Cc4ccccc4)NC(=O)[C@H](C)NC(=O)[C@H](C)NC(=O)[C@H](CCC(=O)O)NC(=O)C[C@H](C(=O)O)NC3=O)NC1=O)CCCN2C(C)=O` (stereo partly drawn) [I-674, Ac-PL3-Asp-Ile-B5-isoDAsp-Glu-Ala-Ala-Phe-Gln-S8-Phe-BztA-Gln-NH2], for which the IC50 in series [1] (setting [2]) came out at 5000 nM. In the series “CHI Log D procedure”, the chromatographic logD turned out to be 1.95.

With `CC[C@H](C)[C@@H]1NC(=O)[C@H](CC(=O)O)NC(=O)[C@]2(CC=CCCCC3(CCCC=CCCCCCC[C@@](C)(C(=O)N[C@@H](Cc4ccccc4)C(=O)N[C@@H](Cc4csc5ccccc45)C(=O)N[C@@H](CCC(N)=O)C(N)=O)NC(=O)[C@H](CCC(N)=O)NC(=O)[C@H](Cc4ccccc4)NC(=O)[C@H](C)NC(=O)[C@H](C)NC(=O)[C@H](CCC(=O)O)NC(=O)C[C@H](CC(=O)O)NC3=O)NC1=O)CCCN2C(C)=O` (stereo partly drawn) [I-675, Ac-PL3-Asp-Ile-B5-RbGlu-Glu-Ala-Ala-Phe-Gln-S8-Phe-BztA-Gln-NH2], the IC50 in series [1] (setting [2]) is 4520 nM. The chromatographic logD in the series “CHI Log D procedure” was 2.13.

Take `CC[C@H](C)[C@@H]1NC(=O)[C@H](CC(=O)O)NC(=O)[C@]2(CC=CCCCC3(CCCC=CCCCCCC[C@@](C)(C(=O)N[C@@H](Cc4ccccc4)C(=O)N[C@@H](Cc4csc5ccccc45)C(=O)N[C@@H](CCC(N)=O)C(N)=O)NC(=O)[C@H](CCC(N)=O)NC(=O)[C@H](Cc4ccccc4)NC(=O)[C@H](C)NC(=O)[C@H](C)NC(=O)[C@H](CCC(=O)O)NC(=O)C[C@@H](CC(=O)O)NC3=O)NC1=O)CCCN2C(C)=O` (stereo partly drawn) [I-676, Ac-PL3-Asp-Ile-B5-SbGlu-Glu-Ala-Ala-Phe-Gln-S8-Phe-BztA-Gln-NH2]: the IC50 in series [1] (setting [2]) was found to be 5000 nM. The chromatographic logD in “CHI Log D procedure” was found to be 2.29.

On to `CC(=O)N1CCC[C@]12CC=CCCCC1(CCCC=CCCCOC(=O)N3CC[C@@](C(=O)N[C@@H](Cc4ccsc4)C(=O)N[C@@H](Cc4csc5ccccc45)C(=O)N[C@@H](Cc4c[nH]cn4)C(N)=O)(C3)NC(=O)[C@H](CC(N)=O)NC(=O)[C@H](Cc3ccccc3)NC(=O)[C@H](C)NC(=O)[C@H](C)NC(=O)[C@H](CC(=O)O)NC(=O)[C@H](CC(=O)O)NC1=O)NC(=O)[C@H](CC(C)(C)C)NC(=O)[C@H](CC(=O)O)NC2=O` (stereo partly drawn) [I-695, Ac-PL3-Asp-Npg-B5-Asp-Asp-Ala-Ala-Phe-Asn-PyrS2-3Thi-BztA-His-NH2], for which the IC50 in series [1] (setting [2]) worked out at 5 nM. Besides, in the series “CHI Log D procedure”, the “CHI Log D” value stood at 2.117.

`CC[C@H](C)[C@@H]1NC(=O)[C@H](CC(=O)O)NC(=O)[C@]2(CC=CCCCC3(CCCC=CCCCCCC[C@@](C)(C(=O)N[C@@H](Cc4ccsc4)C(=O)N[C@@H](Cc4csc5ccccc45)C(=O)N[C@@H](CCC(N)=O)C(N)=O)NC(=O)[C@H](CC(N)=O)NC(=O)[C@H](Cc4ccccc4)NC(=O)[C@H](C)NC(=O)[C@H](C)NC(=O)[C@H](CN(CC(=O)O)CC(F)(F)F)NC(=O)[C@H](CC(=O)O)NC3=O)NC1=O)CCCN2C(C)=O` (stereo partly drawn) [I-700, Ac-PL3-Asp-Ile-B5-Asp-TfeGA-Ala-Ala-Phe-Asn-S8-3Thi-BztA-Gln-NH2]: the IC50 in series [1] (setting [2]) and in series [1] (read-out: FP EC50) was 49 nM throughout. In addition, the “CHI Log D” value in “CHI Log D procedure” was found to be 2.607.
